Assay results published in patent EP4635500A1, “THERAPEUTIC AGENT FOR BACTERIAL INFECTION” (Sumitomo Pharma Co., Ltd., priority 2022, dated 2024).
Like-named read-outs stand apart in the source and are kept apart here.

How the values were obtained:
[1] = system: A. baumannii; test: MIC, broth microdilution, CDC/FDA Antibiotic Resistance Isolate Bank (Example 7, Tables 9, 13, 14); assay type: cell-based, Acinetobacter baumannii; details: for MIC: read-out: MIC
[2] = system: P. aeruginosa; test: MIC, broth microdilution, CDC/FDA Antibiotic Resistance Isolate Bank (Example 7, Tables 10, 15); assay type: cell-based; details: for MIC: Pseudomonas aeruginosa, read-out: MIC

C[C@@H](O)[C@H]1C(=O)N2C(C(=O)O)=C(S[C@@H]3CN[C@H](C(=O)N(C)C)C3)[C@H](C)[C@H]12 [MEPM, meropenem]
8 µg/mL: MIC ([1]; Acinetobacter baumannii, A. baumannii KUB No. 5567, AR Bank #70, OXA-58, OXA-100) | MIC ([1]; Acinetobacter baumannii, A. baumannii KUB No. 5714, AR Bank #281, OXA-82) | MIC ([1]; Acinetobacter baumannii, A. baumannii KUB No. 5740, AR Bank #307, OXA-66, OXA-237) | MIC ([2]; KUB No. 5592, AR Bank #95, no carbapenemase gene) | MIC ([2]; KUB No. 5676, AR Bank #243, VIM-2) | MIC ([2]; KUB No. 5678, AR Bank #245, VIM-2)
16 µg/mL: MIC ([1]; Acinetobacter baumannii, A. baumannii KUB No. 5721, AR Bank #288, OXA-23, OXA-66) | MIC ([1]; Acinetobacter baumannii, A. baumannii KUB No. 5730, AR Bank #297, OXA-23, OXA-66) | MIC ([1]; Acinetobacter baumannii, A. baumannii KUB No. 5731, AR Bank #298, OXA-66, OXA-237) | MIC ([1]; Acinetobacter baumannii, A. baumannii KUB No. 5736, AR Bank #303, OXA-23, OXA-66) | MIC ([1]; Acinetobacter baumannii, A. baumannii KUB No. 5741, AR Bank #308, OXA-71) | MIC ([1]; Acinetobacter baumannii, A. baumannii KUB No. 5746, AR Bank #313, OXA-23, OXA-69) | MIC ([2]; KUB No. 5591, AR Bank #94, no carbapenemase gene) | MIC ([2]; KUB No. 5666, AR Bank #233, no carbapenemase gene) | MIC ([2]; KUB No. 5668, AR Bank #235, no carbapenemase gene) | MIC ([2]; KUB No. 5677, AR Bank #244, no carbapenemase gene)
4 µg/mL: MIC ([1]; Acinetobacter baumannii, A. baumannii KUB No. 5709, AR Bank #276, no carbapenemase genes (-)) | MIC ([1]; Acinetobacter baumannii, A. baumannii KUB No. 5745, AR Bank #312, OXA-69)
2 µg/mL: MIC ([2]; KUB No. 5667, AR Bank #234, no carbapenemase gene) | MIC ([2]; KUB No. 5669, AR Bank #236, no carbapenemase gene) | MIC ([2]; KUB No. 5670, AR Bank #237, no carbapenemase gene)
64 µg/mL: MIC ([1]; Acinetobacter baumannii, A. baumannii KUB No. 5729, AR Bank #296, OXA-23, OXA-223) | MIC ([1]; Acinetobacter baumannii, A. baumannii KUB No. 5737, AR Bank #304, OXA-66, OXA-72) | MIC ([2]; KUB No. 57 (continued 90 in the 40th table r2), AR Bank #44 (continued 5), no carbapenemase gene) | MIC ([2]; KUB No. 5607, AR Bank #110, VIM-2) | MIC ([2]; KUB No. 5663, AR Bank #230, VIM-2) | MIC ([2]; KUB No. 5672, AR Bank #239, GES-1, VIM-11)
32 µg/mL: MIC50 ([1]; 55 isolates of A. baumannii) | MIC ([1]; Acinetobacter baumannii, A. baumannii KUB No. 5575, AR Bank #78, OXA-71) | MIC ([1]; Acinetobacter baumannii, A. baumannii KUB No. 5706, AR Bank #273, OXA-23, OXA-66) | MIC ([1]; Acinetobacter baumannii, A. baumannii KUB No. 5708, AR Bank #275, OXA-23, OXA-66) | MIC ([1]; Acinetobacter baumannii, A. baumannii KUB No. 5711, AR Bank #278, OXA-23, OXA-66) | MIC ([1]; Acinetobacter baumannii, A. baumannii KUB No. 5712, AR Bank #279, OXA-23, OXA-66) | MIC ([1]; Acinetobacter baumannii, A. baumannii KUB No. 5715, AR Bank #282, OXA-23, OXA-66) | MIC ([1]; Acinetobacter baumannii, A. baumannii KUB No. 5716, AR Bank #283, OXA-23, OXA-66) | MIC ([1]; Acinetobacter baumannii, A. baumannii KUB No. 5723, AR Bank #90, OXA-23, OXA-66) | MIC ([1]; Acinetobacter baumannii, A. baumannii KUB No. 5724, AR Bank #291, OXA-23, OXA-66) | MIC ([1]; Acinetobacter baumannii, A. baumannii KUB No. 5727, AR Bank #294, OXA-23, OXA-65) | MIC ([1]; Acinetobacter baumannii, A. baumannii KUB No. 5728, AR Bank #295, OXA-23, OXA-66) | MIC ([1]; Acinetobacter baumannii, A. baumannii KUB No. 5732, AR Bank #299, OXA-23, OXA-203) | MIC ([1]; Acinetobacter baumannii, A. baumannii KUB No. 5735, AR Bank #302, OXA-23, OXA-82) | MIC ([1]; Acinetobacter baumannii, A. baumannii KUB No. 5742, AR Bank #309, OXA-23, OXA-82) | MIC ([1]; Acinetobacter baumannii, A. baumannii KUB No. 5743, AR Bank #310, OXA-23, OXA-82) | MIC ([1]; Acinetobacter baumannii, A. baumannii KUB No. 5744, AR Bank #311, OXA-23, OXA-82) | MIC50 ([1]; Acinetobacter baumannii, 55 strains of A. baumannii, read-out: MIC50) | MIC ([2]; KUB No. 5587, AR Bank #90, KPC-5) | MIC ([2]; KUB No. 5608, AR Bank #111, VIM-2) | MIC ([2]; KUB No. 5662, AR Bank #229, no carbapenemase gene)
16 µg(mL): MIC against 96 strains of P. aeruginosa MIC50 ([2]; 96 strains of P. aeruginosa, β-lactamase inhibitor µg/mL in parentheses)
≤ 0.25 µg/mL: MIC ([2]; KUB No. 5671, AR Bank #238, no carbapenemase gene)
